Results: patent publication US8030352B2, “Method of producing retinyl esters” (Unilever Home & Personal Care USA, division of Conopco, Inc., priority 2002, dated 2011)

Experiment: Retinyl ester stability in moisturising cream formulations (HPLC)
Type: physicochemical
Conditions: 0.03 and 0.15% retinyl ester in cream; stored at 22, 30, 45 and 50° C.; sampled over 35 days; FIGS. 1 and 2
Protocol: Retinyl Linoleate from National Starch Corp. and the retinyl ester product from example 1 were blended into moisturising cream formulations shown below in Formulations 1 and 2 at a level of 0.03 and 0.15% of the retinyl ester. The creams were stored at 22° C., 30° C., 45° C. and 50° C. and samples taken at time 0, and twice more over 35 days as shown in FIGS. 1 and 2.
The retinyl esters were extracted from the base cream 60/40 acetone/acetonitrile, stirred for 10 minutes, filtered and then injected These were then analysed by HPLC according to the conditions below.
FIGS. 1 and 2 show the stability results for the samples.

CCCCCCCCCCCCCCCC(=O)OC/C=C(C)/C=C/C=C(C)/C=C/C1=C(C)CCCC1(C)C [retinyl palmitate]
stability in moisturising cream: only as stable as retinyl linoleate (National Starch)
